Experimental findings from US20220324835A1 (Nurix Therapeutics, Inc., priority 2018, published 2022) are described below.

As usually defined, the IC50 is the concentration that gives 50% inhibition. As a reminder, the Kd is the concentration at which binding is half-saturated.

Each structure is given as a SMILES string.

Test [1] concerns T-cell. Description: IL-2 secretion from T-cells co-stimulated with anti-CD3 and anti-CD28 antibody (Biological Example 2). The format is cell-based, human. Conditions: Homo sapiens, T-cell, fold change over baseline, primary human total T-cells, read-out: IL-2 secretion Anti-CD3/Anti-CD28 stimulation; for fold induction at 0.3 µM: 0.3 μM Cbl-b inhibitor; for fold induction at 1 µM: 1 μM Cbl-b inhibitor; for fold induction at 4 µM: 4 μM Cbl-b inhibitor. The essentials: (§1)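 Values are fold-change over baseline: readings (IL-2 release, CD25 staining) from inhibitor-treated T-cells divided against untreated cells […]. No detailed procedure stated.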

Test [2] relates to T-cell. Briefly: CD25 cell surface staining on T-cells co-stimulated with anti-CD3 and anti-CD28 antibody (Biological Example 2). The format is cell-based, human. Conditions: Homo sapiens, T-cell, fold change over baseline, primary human total T-cells, read-out: CD25 staining Anti-CD3/Anti-CD28 stimulation; for fold induction at 0.3 µM: 0.3 μM Cbl-b inhibitor; for fold induction at 1 µM: 1 μM Cbl-b inhibitor; for fold induction at 4 µM: 4 μM Cbl-b inhibitor. The essentials: as §1

In test [3] the test system is T-cell. Description: IL-2 secretion from T-cells stimulated with anti-CD3 antibody alone (Biological Example 2). Type of test: cell-based, human. Particulars: T-cell, fold change over baseline, primary human total T-cells, read-out: IL-2 secretion Anti-CD3 stimulation; for fold induction at 1 µM: 1 μM Cbl-b inhibitor; for fold induction at 8 µM: 8 μM Cbl-b inhibitor.
Test [4] deals with T1, Cbl-b (Homo sapiens, UniProt Q13191). Briefly: Cbl-b activity assay (Cbl-b inhibition assay), TR-FRET of Cbl-b interaction with UbcH5B-Ub. Particulars: assay buffer with 100 mM NaCl, 60 nM Src kinase; read-out: Cbl-b activity IC50. The format is biochemical. The essentials:
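Compound-treated Cbl-b was incubated 1.5 h with Src kinase (60 nM final; 30 nM for asterisked values, which also used 50 mM instead of 100 mM NaCl), 1 mM ATP and 5 mM MgCl2. Binding to fluorescent Ub-loaded UbcH5B (C85K mutant) was then read by TR-FRET after 1 h more.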
(Time-resolved FRET reads energy transfer from a long-lived donor to a nearby acceptor.)

The target in another test is Cbl-b (residues 36-427) (Homo sapiens, UniProt Q13191). Description: Cbl-b binding assay (SPR, Biacore T200). Particulars: 20° C., 1:1 binding model. The method in brief: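 NeutrAvidin capture chip, 20° C; 50 s injections at 50 μl/min, 90-180 s dissociation; 0.3 M NaCl regeneration. Asterisked column: 50 mM NaCl buffer and 30 nM Src kinase in place of 100 mM NaCl and 60 nM Src kinase. 1:1 fit.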
Background: In SPR one partner is held on a chip, and binding of the other changes the refractive index at the surface.

The test system of test [5] is T-cell. Description: CD25 cell surface staining on T-cells stimulated with anti-CD3 antibody alone (Biological Example 2). The format is cell-based, human. Conditions: T-cell, fold change over baseline, primary human total T-cells, read-out: CD25 staining Anti-CD3 stimulation; for fold induction at 1 µM: 1 μM Cbl-b inhibitor; for fold induction at 8 µM: 8 μM Cbl-b inhibitor.

Test [6] addresses T1, Cbl-b. Briefly: Cbl-b inhibition assay (Cbl-b activity assay, FRET, Biological Example 1; 100 mM NaCl, 60 nM Src kinase). Type of test: biochemical. Conditions: upper bound stated in text lists; read-out: IC50 values in the Cbl-b inhibition assay of Biological Example 1. The essentials: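 N-terminally biotinylated Avi-tagged Cbl-b was mixed with Src kinase, UbcH5B covalently conjugated to Bodipy-fluorescein ubiquitin, and streptavidin-terbium. Src phosphorylation lets Cbl-b bind UbcH5B-Ub, giving terbium-fluorescein FRET; inhibition is read as loss of FRET signal.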

T1 sequence (Q13191 36-427): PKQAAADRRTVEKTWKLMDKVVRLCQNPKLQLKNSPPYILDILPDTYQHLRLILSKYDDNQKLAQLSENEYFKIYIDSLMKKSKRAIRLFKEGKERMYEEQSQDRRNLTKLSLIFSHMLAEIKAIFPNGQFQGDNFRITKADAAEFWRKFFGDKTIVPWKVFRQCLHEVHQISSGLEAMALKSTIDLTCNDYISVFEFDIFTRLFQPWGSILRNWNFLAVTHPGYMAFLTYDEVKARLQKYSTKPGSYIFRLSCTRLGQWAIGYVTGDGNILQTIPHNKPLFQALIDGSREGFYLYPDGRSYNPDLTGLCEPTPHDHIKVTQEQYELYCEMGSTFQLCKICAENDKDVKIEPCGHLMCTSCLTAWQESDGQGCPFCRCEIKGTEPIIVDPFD
Sequence of Cbl-b (residues 36-427) (Q13191 36-427): as above

On to `C[C@H](Cc1nncn1C)c1cc(N[C@H]2CCOC2)nc(N2Cc3c(cccc3C(F)(F)F)C2=O)c1` (stereo in doubt) [Compound 361, 2-(4-((R)-1-(4-methyl-4H-1,2,4-triazol-3-yl)propan-2-yl)-6-((R)-THF-3-ylamino)pyridin-2-yl)-4-(trifluoromethyl)isoindolin-1-one], for which, in the test on T-cell [1], the fold induction at 0.3 µM was in the range of 1.01 to 2.5, the fold induction at 1 µM was 1.01 to 2.5 and the fold induction at 4 µM was in the range of 1.01 to 2.5. Further, in the test with T-cell [2], the fold induction at 0.3 µM is less than 1, the fold induction at 1 µM lay in the range of 1.01 to 1.3 and the fold induction at 4 µM was in the range of 1.01 to 1.3. Further, in the test with T-cell [3], the fold induction at 1 µM was 0.051 to 0.1 and the fold induction at 8 µM lay within 0.151 to 0.2. For the same compound, the IC50 at Cbl-b [4] is 301 to 1000 nM. The compound also showed a Kd at Cbl-b (residues 36-427) of 301 to 1000 nM. Moreover, in the test with T-cell [5], the fold induction at 1 µM fell in the range of 0.601 to 0.8 and the fold induction at 8 µM lay in the range of 0.801 to 1.

Take `C[C@H](Cc1nncn1C)c1cccc(N2Cc3c(cc(C(=O)O)cc3C(F)(F)F)C2=O)c1` [Compound 273, (R)-2-(3-(1-(4-methyl-4H-1,2,4-triazol-3-yl)propan-2-yl)phenyl)-3-oxo-7-(trifluoromethyl)isoindoline-5-carboxylic acid]: the figures for the IC50 at Cbl-b [4] and at Cbl-b [6] were 1000 to 3000 nM and no more than 10000 nM, respectively. The compound further returned a Kd at Cbl-b (residues 36-427) of 3000 to 10000 nM.

Regarding `C[C@H](Cc1nncn1C)c1cc(N2Cc3c(cccc3C(F)(F)F)C2=O)ccc1F` [Compound 280, 2-[4-fluoro-3-[(1R)-1-methyl-2-(4-methyl-1,2,4-triazol-3-yl)ethyl]phenyl]-4-(trifluoromethyl)isoindolin-1-one], the values for the IC50 at Cbl-b [4] and at Cbl-b [6] were 3000 to 10000 nM and no more than 10000 nM, respectively. Moreover, the Kd at Cbl-b (residues 36-427) lay in the range of 1000 to 3000 nM.

Turning to `C[C@@H](Cc1nncn1C)c1cc(F)cc(N2Cc3c(cccc3C(F)(F)F)C2=O)c1` [Compound 281b, 2-[3-Fluoro-5-[(1S)-1-methyl-2-(4-methyl-1,2,4-triazol-3-yl)ethyl]phenyl]-4-(trifluoromethyl)isoindolin-1-one], the IC50 on Cbl-b [4] is 3000 to 10000 nM; at Cbl-b [6], no more than 10000 nM. The compound also returned a Kd on Cbl-b (residues 36-427) of 100 to 300 nM.

On to `CC(c1cccc(NC(=O)c2ccc(CO)c(C3CC3)n2)c1)C(F)(F)c1nncn1C` (stereo not drawn) [Compound 287, 6-cyclopropyl-N-(3-(1,1-difluoro-1-(4-methyl-4H-1,2,4-triazol-3-yl)propan-2-yl)phenyl)-5-(hydroxymethyl)picolinamide], for which the IC50 was 100 to 300 nM on Cbl-b [4] and no more than 500 nM on Cbl-b [6]. At Cbl-b (residues 36-427), this compound registered a Kd of 1000 to 3000 nM.

Take `CC(c1cccc(N2Cc3c(cccc3C(F)(F)F)C2=O)c1)C(F)(F)c1nncn1C` (stereo not drawn) [Compound 294, 2-(3-(1,1-difluoro-1-(4-methyl-4H-1,2,4-triazol-3-yl)propan-2-yl)phenyl)-4-(trifluoromethyl)isoindolin-1-one]: the IC50 at Cbl-b [4] is 301 to 1000 nM; at Cbl-b [6] it was no more than 500 nM. Further, the Kd on Cbl-b (residues 36-427) is less than 100 nM.

Turning to `Cn1cnnc1C(F)(F)C(C)(O)c1cccc(N2Cc3c(cccc3C(F)(F)F)C2=O)c1` (stereo not drawn) [Compound 295, 2-(3-(1,1-difluoro-2-hydroxy-1-(4-methyl-4H-1,2,4-triazol-3-yl)propan-2-yl)phenyl)-4-(trifluoromethyl)isoindolin-1-one], the IC50 on Cbl-b [4] is 3000 to 10000 nM; at Cbl-b [6] it was no more than 10000 nM. In addition, the Kd at Cbl-b (residues 36-427) was 1000 to 3000 nM.

Turning to `Cn1cnnc1C[C@@](C)(F)c1cccc(N2Cc3c(cccc3C(F)(F)F)C2=O)c1` [Compound 298a, (R)-2-(3-(2-fluoro-1-(4-methyl-4H-1,2,4-triazol-3-yl)propan-2-yl)phenyl)-4-(trifluoromethyl)isoindolin-1-one], the IC50 was 1000 to 3000 nM at Cbl-b [4] and no more than 10000 nM on Cbl-b [6]. On Cbl-b (residues 36-427), this compound displayed a Kd of 3000 to 10000 nM.

As for `C[C@H](Cc1nncn1C)c1ccnc(NC(=O)c2ccc3ccccc3n2)c1` [Compound 303, (R)-N-(4-(1-(4-methyl-4H-1,2,4-triazol-3-yl)propan-2-yl)pyridin-2-yl)quinoline-2-carboxamide], the IC50 on Cbl-b [4] is 301 to 1000 nM; at Cbl-b [6] it was no more than 1000 nM. Besides, the dissociation constant (Kd) on Cbl-b (residues 36-427) is 3000 to 10000 nM.

For the compound `C[C@@H](Cc1nncn1C)c1ccnc(N2Cc3c(cccc3C(F)(F)F)C2=O)c1` [Compound 304a, (S)-2-(4-(1-(4-methyl-4H-1,2,4-triazol-3-yl)propan-2-yl)pyridin-2-yl)-4-(trifluoromethyl)isoindolin-1-one], the results for the IC50 on Cbl-b [4] and at Cbl-b [6] were 3000 to 10000 nM and no more than 10000 nM, respectively. The Kd on Cbl-b (residues 36-427) was greater than 10000 nM.

Turning to `CNC(=O)COc1ccc2cnc(C(=O)Nc3cccc([C@H](C)Sc4nncn4C)c3)cc2c1` [Compound 306a, (S)-N-(3-(1-(4-methyl-4H-1,2,4-triazol-3-ylthio)ethyl)phenyl)-6-(2-(methylamino)-2-oxoethoxy)isoquinoline-3-carboxamide], in the test on T-cell [1], the fold induction at 0.3 µM is less than 1, the fold induction at 1 µM lay in the range of 1.01 to 2.5 and the fold induction at 4 µM lay within 1.01 to 2.5. For the same compound, in the test on T-cell [2], the fold induction at 0.3 µM was in the range of 1.01 to 1.3, the fold induction at 1 µM fell in the range of 1.01 to 1.3 and the fold induction at 4 µM lay within 1.01 to 1.3. For the same compound, in the test on T-cell [3], the fold induction at 1 µM is less than 0.05 and the fold induction at 8 µM is less than 0.05. Further, the IC50 on Cbl-b [4] lay in the range of 100 to 300 nM. The Kd at Cbl-b (residues 36-427) was in the range of 100 to 300 nM. In addition, in the test with T-cell [5], the fold induction at 1 µM is less than 0.6 and the fold induction at 8 µM was 0.801 to 1.

`C[C@H](Sc1nncn1C)c1cccc(NC(=O)c2cc3cc(OCc4ccn[nH]4)ccc3cn2)c1` [Compound 307, (S)-6-((1H-pyrazol-5-yl)methoxy)-N-(3-(1-((4-methyl-4H-1,2,4-triazol-3-yl)thio)ethyl)phenyl)isoquinoline-3-carboxamide]: in the test with T-cell [1], the fold induction at 0.3 µM fell in the range of 1.01 to 2.5, the fold induction at 1 µM fell in the range of 1.01 to 2.5 and the fold induction at 4 µM lay in the range of 2.51 to 5. Also, in the test with T-cell [2], the fold induction at 0.3 µM was less than 1, the fold induction at 1 µM was less than 1 and the fold induction at 4 µM was 1.01 to 1.3. Further, in the test on T-cell [3], the fold induction at 1 µM lay within 0.051 to 0.1 and the fold induction at 8 µM is 0.101 to 0.15. In addition, the IC50 at Cbl-b [4] was 100 to 300 nM. Besides, the Kd at Cbl-b (residues 36-427) fell in the range of 301 to 1000 nM. Besides, in the test with T-cell [5], the fold induction at 1 µM was less than 0.6 and the fold induction at 8 µM was less than 0.6.

`C[C@H](Cc1nncn1C)c1cccc(NC(=O)c2[nH]nc3c2CCCC3)c1` [Compound 327, (R)-N-(3-(1-(4-Methyl-4H-1,2,4-triazol-3-yl)propan-2-yl)phenyl)-4,5,6,7-tetrahydro-2H-indazole-3-carboxamide]: in the test on T-cell [1], the fold induction at 0.3 µM lay in the range of 1.01 to 2.5, the fold induction at 1 µM lay in the range of 1.01 to 2.5 and the fold induction at 4 µM lay within 1.01 to 2.5. For the same compound, in the test with T-cell [2], the fold induction at 0.3 µM fell in the range of 1.01 to 1.3, the fold induction at 1 µM is 1.01 to 1.3 and the fold induction at 4 µM was 1.01 to 1.3. Also, in the test on T-cell [3], the fold induction at 1 µM was in the range of 0.051 to 0.1 and the fold induction at 8 µM lay in the range of 0.051 to 0.1. At Cbl-b [4], the IC50 was 301 to 1000 nM. On Cbl-b (residues 36-427), this compound registered a Kd of 1000 to 3000 nM. In the test with T-cell [5], the fold induction at 1 µM is 0.601 to 0.8 and the fold induction at 8 µM was 0.801 to 1.

For `C[C@H](Cc1nncn1C)c1cccc(N2Cc3c(cc(CN4CC[C@H](O)C4)cc3C(F)(F)F)C2=O)c1` [Compound 394, 6-(((S)-3-hydroxypyrrolidin-1-yl)methyl)-2-(3-((R)-1-(4-methyl-4H-1,2,4-triazol-3-yl)propan-2-yl)phenyl)-4-(trifluoromethyl)isoindolin-1-one], the IC50 is less than 100 nM on Cbl-b [4] and no more than 100 nM on Cbl-b [6]. Besides, the Kd at Cbl-b (residues 36-427) is less than 100 nM.

With `CCCOc1cc([C@H](C)Cc2nncn2C)cc(N2Cc3c(cccc3C(F)(F)F)C2=O)n1` [Example 688, (R)-2-(4-(1-(4-methyl-4H-1,2,4-triazol-3-yl)propan-2-yl)-6-propoxy-pyridin-2-yl)-4-(trifluoromethyl)isoindolin-1-one], the figures for the IC50 on Cbl-b [4] and on Cbl-b [6] were 301 to 1000 nM and no more than 1000 nM, respectively. For the same compound, the Kd on Cbl-b (residues 36-427) is 1000 to 3000 nM.
